Measured values taken from PubChem BioAssay (NCI).
“And” between values parts separate entries of the source, which are not always exact repeats. Equal values may be shown once.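 Method: 48-hour compound exposure of cells in 96-well plates, five concentrations, linear interpolation of endpoints. The concentration for 50% growth inhibition is given as GI50. TGI denotes the concentration required for complete inhibition of growth.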

How the values were obtained:
Test in all cases: inhibition of tumour cell growth, NCI panel, 48 h
[1] = system: SK-MEL-2 melanoma
[2] = system: RXF 393 renal
[3] = system: OVCAR-8 ovarian
[4] = system: BT-549 breast
[5] = system: NCI-H522 lung
[6] = system: COLO 205 colon
[7] = system: 786-0 renal
[8] = system: A498 renal
[9] = system: SR leukemia
[10] = system: NCI-H226 lung
[11] = system: MDA-MB-231 breast
[12] = system: A549 NSCLC
[13] = system: SW-620 colon
[14] = system: DU-145 prostate
[15] = system: HCT-116 colon
[16] = system: HCC-2998 colon
[17] = system: SF-539 CNS
[18] = system: SK-OV-3 ovarian
[19] = system: RPMI-8226 leukemia
[20] = system: MOLT-4 leukemia
[21] = system: EKVX NSCLC
[22] = system: U251 CNS
[23] = system: MCF7 breast
[24] = system: NCI/ADR-RES ovarian
[25] = system: ACHN renal
[26] = system: OVCAR-3 ovarian
[27] = system: SK-MEL-5 melanoma
[28] = system: SF-295 CNS
[29] = system: UACC-257 melanoma
[30] = system: IGROV1 ovarian
[31] = system: SK-MEL-28 melanoma
[32] = system: NCI-H23 lung
[33] = system: HOP-92 NSCLC
[34] = system: HCT-15 colon
[35] = system: M14 melanoma
[36] = system: CAKI-1 renal
[37] = system: HOP-62 NSCLC
[38] = system: MDA-MB-435
[39] = system: LOX IMVI melanoma
[40] = system: SNB-19 CNS
[41] = system: HT29 colon
[42] = system: CCRF-CEM leukemia
[43] = system: OVCAR-5 ovarian
[44] = system: UO-31 renal
[45] = system: MALME-3M melanoma
[46] = system: UACC-62 melanoma
[47] = system: SF-268 CNS
[48] = system: T-47D breast
[49] = system: TK-10 renal
[50] = system: SN12C renal
[51] = system: KM12 colon
[52] = system: PC-3 prostate
[53] = system: K-562 leukemia
[54] = system: OVCAR-4 ovarian
[55] = system: NCI-H460 lung
[56] = system: HL-60(TB) leukemia
[57] = system: HS 578T breast
[58] = system: SNB-75 CNS

COc1cc(/C=C/C(=O)OC[C@H](Br)[C@H](OC(C)=O)c2ccc3c(c2)OCO3)cc(OC)c1OC
TGI [1]: > 100 µM
TGI [2]: > 100 µM
TGI [3]: > 100 µM
TGI [4]: > 100 µM
TGI [5]: > 100 µM
TGI [6]: > 100 µM
TGI [7]: > 100 µM
TGI [8]: > 100 µM
TGI [9]: > 100 µM
TGI [10]: > 100 µM
TGI [11]: > 100 µM
TGI [12]: > 100 µM
TGI [13]: > 100 µM
TGI [14]: > 100 µM
TGI [15]: > 100 µM
TGI [16]: > 100 µM
TGI [17]: > 100 µM
TGI [18]: > 100 µM
TGI [19]: > 100 µM
TGI [20]: > 100 µM
TGI [21]: > 100 µM
TGI [22]: > 100 µM
TGI [23]: > 100 µM
TGI [24]: > 100 µM
TGI [25]: > 100 µM
TGI [26]: > 100 µM
TGI [27]: > 100 µM
TGI [28]: > 100 µM
TGI [29]: > 100 µM
TGI [30]: > 100 µM
TGI [31]: > 100 µM
TGI [32]: > 100 µM
TGI [33]: > 100 µM
TGI [34]: > 100 µM
TGI [35]: > 100 µM
TGI [36]: > 100 µM
TGI [37]: > 100 µM
TGI [38]: > 100 µM
TGI [39]: > 100 µM
TGI [40]: > 100 µM
TGI [41]: > 100 µM
TGI [42]: > 100 µM
TGI [43]: > 100 µM
TGI [44]: > 100 µM
TGI [45]: > 100 µM
TGI [46]: > 100 µM
TGI [47]: > 100 µM
TGI [48]: > 100 µM
TGI [49]: > 100 µM
TGI [50]: > 100 µM
TGI [51]: > 100 µM
TGI [52]: > 100 µM
TGI [53]: > 100 µM
TGI [54]: > 100 µM

COc1ccc(-c2nc3sc4c(c3c(=O)[nH]2)CCCC4)c2ccccc12
GI50 [2]: 0.253 µM
TGI [2]: 0.799 µM
GI50 [3]: 0.474 µM and 0.0475 µM
TGI [3]: > 100 µM
TGI [4]: 6.08 µM and 3.47 µM
TGI [5]: 0.0179 µM
TGI [7]: 3.8 µM
TGI [8]: 0.765 µM and 0.0871 µM
GI50 [9]: 0.418 µM
GI50 [10]: 1.41 µM
TGI [11]: > 100 µM
GI50 [12]: 0.42 µM
TGI [13]: > 100 µM
TGI [14]: 17.5 µM
GI50 [55]: 0.381 µM
GI50 [15]: 0.371 µM
TGI [16]: 79.1 µM
GI50 [17]: 0.211 µM and 0.0213 µM
TGI [17]: 0.544 µM and 0.0746 µM
TGI [18]: 3.74 µM
TGI [19]: > 100 µM
TGI [20]: > 100 µM
GI50 [56]: 0.301 µM
TGI [56]: 2.04 µM
GI50 [21]: 1.8 µM
GI50 [22]: 0.369 µM
TGI [23]: > 100 µM
TGI [24]: 4.95 µM and 2.75 µM
GI50 [25]: 0.755 µM
TGI [27]: 5.52 µM
GI50 [28]: 0.314 µM
TGI [28]: 1.2 µM
GI50 [29]: 1.56 µM and 4.95 µM
TGI [29]: > 100 µM
TGI [30]: > 100 µM
GI50 [31]: 0.468 µM
GI50 [32]: 0.57 µM
GI50 [33]: 0.0957 µM and 0.599 µM
TGI [33]: 2.37 µM and 7.9 µM
TGI [57]: 0.093 µM
TGI [34]: > 100 µM
TGI [35]: 0.63 µM and 0.135 µM
GI50 [36]: 0.45 µM
GI50 [37]: 0.629 µM
TGI [39]: > 100 µM
GI50 [40]: 0.411 µM and 0.0467 µM
TGI [40]: > 100 µM
TGI [42]: > 100 µM
TGI [58]: 0.792 µM and 1.61 µM
GI50 [43]: 0.301 µM
TGI [43]: 4.59 µM
GI50 [44]: 0.59 µM
GI50 [45]: 0.749 µM
TGI [45]: 9.03 µM
TGI [46]: 16.3 µM
TGI [47]: > 100 µM
GI50 [48]: 4.82 µM and 2.85 µM
TGI [48]: > 100 µM
GI50 [49]: 3.53 µM
GI50 [50]: 0.514 µM and 0.0702 µM
TGI [50]: > 100 µM
TGI [51]: > 100 µM
GI50 [52]: 0.343 µM and 0.0371 µM
TGI [52]: > 100 µM
TGI [53]: > 100 µM
GI50 [54]: 2.23 µM
